Patent US20060095020A1, “Introduction of agent with medical device” (Medtronic, Inc., priority 2004, published 2006)

Test system: staphylococcus epidermidis
Conditions: in vitro
Description: One skilled in the are would be able to determine the best effective concentration of the active agent, such about 0.05%, about 1%, about 5%, about 10%, about 20%, or the like that should be deployed in a choosen configuration of a given device.
FIG. 10 is a conceptual diagram illustrating an in vitro testing system 160 with an active agent. Testing system 160 includes a culture plate 162, which serves as a test platform. […] A experimental tube 168 made at least in part of diffusible material is deployed in plate 162 proximate to microorganisms 166. The diffusible material is configured to pass the test agent to the indicator by diffusion. Experimental tube 168 may be wholly or partially embedded in growth medium 164, or may rest atop growth medium 164. Experimental tube 168 includes a lumen configured to receive a test active agent.
A pump 170 pumps the active agent from a reservoir 172 into the lumen of tube 168. A valve 174 may be closed to prevent leakage or other discharge of the active agent from tube 168, and an outlet reservoir 176 may be provided to collect fluid that discharges from tube 168. In some embodiments, pump 170, valve 174, or both are electronically controlled such that the quantity of active agent in tube 168 is known, such that the pressure of active agent in tube 168 is known, or such that the flow rate of active agent in tube 168 is known. When the active agent is an antibiotic, the effect of the antibiotic agent on microorganisms 166, if any, can be observed using conventional observational techniques, such as optical or microscopic examination. In this way, the effect of the active agent on microorganisms 166 serves as an indicator of diffusion of the test agent through the diffusible material.

In the case of `OO` [hydrogen peroxide], the “zone of inhibition of bacterial growth” value (0.3 percent hydrogen peroxide concentration) is reported as “about twenty-five”, the “zone of inhibition of bacterial growth from the site of diffusion” value (thirty percent concentration hydrogen peroxide solution, diffusing through polyethylene 80 (PE80A) tubing) is reported as “eighty” and the “effectiveness against staphylococcus epidermidis” value (thirty percent concentration hydrogen peroxide solution) is reported as “substantial effectiveness”.
